From article PMC2196313 (The Journal of Experimental Medicine, 1997)

What was measured:
TCR of CTL clone G9a = type: cell-based, mouse (C57BL/6)
CTL clone E8 [1] = type: cell-based, mouse (C57BL/6)
CTL clone E8 [2] = type: cell-based, mouse (C57BL/6); remark: listed apart in the source
CTL clone 4G3 = type: cell-based, mouse
CTL clone B3 = settings: cited from earlier work

Substance | inhibition of agonist-induced loss of surface TCR on clone G9a (TCR of CTL clone G9a) | inhibition of specific target cell lysis by clone E8 (CTL clone E8 [1]) | cold target inhibition of lysis by clone E8 (CTL clone E8 [2]) | inhibition of specific target cell lysis by clone 4G3 (CTL clone 4G3) | antagonism for clone B3 (CTL clone B3)
SIIR FEK ^* L [O7(N4R)] | had no effect | no effect within the concentration range tested | indistinguishable from RMA cells without added peptide | – | –
SIIG FEK ^* L [O7(N4G)] | – | comparatively poor inhibitors | – | most sensitive | potent antagonist
